Read-outs that look alike come from different tables or passages of the source.
Key:
[1] = target: T1, FKBP (Homo sapiens, UniProt P62942); assay: Screening for binding using T2-filtered one-dimensional proton NMR spectroscopy; details: FKBP 50 μM, spin-lock 200 ms, pH 6.5, 300K
Protocol: For all experiments, the T2 -filter spin-lock time was 200 ms with a spin-echo delay of 1 ms, the concentration of compound 1 was 100 μM, the concentration of FKBP was 50 μM, and the buffer was 50 mM PO4, 100 mM NaCl, pH 6.5 (95% D2 O).
For all experiments, the T2 -filter spin-lock time was 200 ms with a spin-echo delay of 1 ms, the concentration of all chemical compounds was 100 μM, the concentration of FKBP was 50 μM, and the buffer was 50 mM PO4, 100 mM NaCl, pH 6.5 (95% D2 O).
Recombinant human FK binding protein (FKBP) was prepared as described in Logan et al., J. Mol. Biol., 236: 637-648 (1994). […]
In FIG. 1A, a CPMG sequence with a spin-lock time of 200 ms is applied to the compound in the absence of FKBP. […] These differences can be detected either by direct inspection, or by a spectral differencing method in which the spectrum of […] (after the spin-lock, FIG. 1C) is subtracted from the spectrum of the compound in the presence of FKBP (also after the spin-lock, FIG. 1B), resulting in the spectrum shown in FIG. 1D. […]
(§1) All NMR spectra were recorded at 300K on a Bruker AMX500 NMR spectrometer. All spectra were recorded with 256 scans and a proton sweep width of 8333.3 Hz and a proton 90 degree pulse length of 7 μs. […] The NMR data were processed and analyzed on Silicon Graphics computers.

[2] = target: T1, FKBP; assay: Screening for binding using diffusion-filtered one-dimensional proton NMR spectroscopy; details: FKBP 50 μM, gradients 3 and 48 Gauss/cm, diffusion delay 300 ms, pH 6.5, 300K
Protocol: (§2) For all experiments, low and high gradient strengths correspond to 3 and 48 Gauss/cm, respectively. The high gradient strength was sufficient to eliminate the residual HDO signal in the sample. A diffusion delay time of 300 ms was used, the concentration of all chemical compounds was 100 μM, the concentration of FKBP was 50 μM, and the buffer was 50 mM PO4, 100 mM NaCl, pH 6.5 (95% D2 O).
as §2, with “48 Gauss/cm.” for “48 Gauss/cm,”, “[…]” for “50 mM”
(§3) Recombinant human FK binding protein (FKBP) was prepared as described in Logan et al., J. Mol. Biol., 236: 637-648 (1994).
The pulse sequence employed for exploiting the changes in diffusion rates of potential ligands in the presence of the target molecule that described by S. J. Gibbs and C. S. Johnson, Jr. J. Main. Reson. […]
as §1

[3] = target: T1, FKBP; details: cited from earlier work
[4] = target: T1, FKBP; assay: KD estimated from absence of observed chemical shift changes in 15N-HSQC spectra of FKBP; format: binding; details: compounds 2-9; estimated from absence of chemical shift changes in 15N-HSQC spectra at compound concentrations of 1.0 mM
Protocol: as §3
from the absence of observed chemical shift changes in ^15 N--HSQC
spectra of FKBP at compound concentrations of 1.0 mM, as described in the […]

[5] = mixture of compounds 1-9, each 100 μM

T1 sequence (P62942 whole entry): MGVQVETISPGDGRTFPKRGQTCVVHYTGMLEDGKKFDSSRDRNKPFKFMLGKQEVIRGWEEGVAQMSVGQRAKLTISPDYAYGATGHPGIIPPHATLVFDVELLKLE

Compound	Kd [4] [mM]	also measured
c1ccc(-c2ncc[nH]2)cc1 [Compound 1]	–	difference spectrum (FIG. 2E), T2-filtered, mixture of compounds 1-9 [1, 5]: positive peaks which correspond to the positions of the reonances of compound 1 in the absence of FKBP; ligand signals after the spin lock time in the presence of FKBP ([1]; single compound, T2-filter, compound 100 μM): significantly reduced; difference spectrum (FIG. 5E), diffusion-filtered, mixture of compounds 1-9 [2, 5]: positive resonances at the chemical shifts for compound 1 in the absence of FKBP; ligand binding detected using diffusion filters (FIGS. 4A-4E) ([2]; single compound 100 μM): demonstrated for FKBP binding to compound 1; Kd ([3]; compound 1, obtained from S. Shuker, et al., Science 274:1531-1534 (1996), read-out: KD): 0.2 mM; Kd ([3]; read-out: affinity (binds to FKBP)): 0.2 mM
O=C1CCc2ccccc2O1 [Compound 2]	> 10	–
COc1cccc(O)c1 [Compound 3]	> 10	–
OC(c1ccccc1)c1ccccc1 [Compound 4]	> 10	–
Oc1cccc(O)c1 [Compound 5]	> 10	–
Nc1cc(-c2ccco2)n[nH]1 [Compound 6]	> 10	–

The next lines start with results.

Kd [4] [mM]	Compound	also measured
> 10	COc1ccc(-c2ccc(C(=O)O)cc2)cc1 [Compound 7]	–
> 10	O=C(O)c1ccc(-c2cccs2)s1 [Compound 8]	–
> 10	O=c1oc2ccccc2c(O)c1-c1ccccc1 [Compound 9]	–

Reference: patent US6043024A, “Use of one-dimensional nuclear magnetic resonance to identify ligands to target biomolecules” (Abbott Laboratories, priority 1997, dated 2000)
